Experimental data from patent US8828993B2, “Psychotropic agents having glutamate NMDA activity” (Ramot At Tel-Aviv University Ltd., priority 2006, dated 2014).
Structures can show the parent of a compound that is named as a salt.

Tests used:
[1] = tested on: ICR male mice; experiment: Subchronic toxicity; assay type: in vivo
Procedure: Subchronic toxicity was tested in ICR male mice. Animals (5 per group) received Compound 1 daily (10 and 20 mg/kg p.o). Animals were followed up for 7 days; weight, food intake and water intake were registered.

[2] = tested on: mice; experiment: Catalepsy bar test; assay type: in vivo; details: doses of up to 50 mg/kg i.p., scored 90 minutes later
Procedure: Catalepsy in mice and rats serves as a behavioral model for the manifestation of the extrapyramidal adverse effects of neuroleptics (Worm, et al., Dopamine-like activities of an aminopyridazine derivative, CM 30366. A behavioral study, Naunyn-Schmeideberg's Arch Pharmacol, 334, 246-52, 1986).
Catalepsy in mice is evaluated using a bar test. The mice were placed in the middle of a steel rod situated between two platforms with their front paws resting on the bar. Animals were injected i.p. with a vehicle or Compound 1. Animals were scored 90 minutes later for the time it took each animal to reach the platform.

[3] = tested on: MK-801-induced hyperactivity in mice; experiment: MK-801-induced hyperactivity in open field; assay type: in vivo
Procedure: MK-801-Induced Stereotype Behavior in Rats (in Open Field)—
MK-801 is an analogue of PCP which inhibits NMDA receptors and elicits hyperlocomotion and stereotypic behavior in rodents and is used as an animal model of schizophrenia (Stephen, et al., Topiramate antagonizes MK-801 in an animal model of schizophrenia, Eur. J. Pharmacol. 449, 2002, 121-5). For experimentation, naïve Balb/c mice were used. MK-801 (0.15 mg/kg i.p) was administered 40 minutes after Compound 1 (or any one of the other compounds of the invention) or a vehicle, and 20 minutes prior to placing the mouse in an open field.
Animals placed in the open field were followed for 60 minutes and their distance moved, velocity, duration of immobility, and number of rearing events were registered using the Noldus system.
As stated above, MK-801 inhibits NMDA receptors and elicits hyperlocomotion. Therefore, where an antagonism of the hyperactivity-induced by the MK-801 is observed upon administration of a compound of the invention, it is an indication as to the positive modulation of the NMDA activity. In other words, such a compound may be considered as useful in the treatment of schizophrenia.
The effect of Compound 6 on the distance moved in Balb/c mice exposed to MK-801 ([…]) i.p. and to Compound 6 (up to 12.5 mg/kg, i.p.) administered 1 hr prior to MK-801 was also tested.
As stated above, MK-801 (an NMDA receptor antagonist) is a widely accepted animal model for schizophrenia. The experiment was conducted with Balb/c male mice (Harlan Il), 6 per group. Compound 1 (50 mg/kg) was administered i.p. (1 hr before experimentation), to mice alone or combined with MK-801 (0.15 mg/kg, i.p.) administered 20 minutes prior to placing the mice individually in an open field for 60 minutes. The hyper-active behavior expressed by hyperlocomotion, velocity, strong mobility, number of rearing was evaluated using the Noldus system, each point represents the mean+/−6 determinations.

[4] = tested on: human glioma U83 cell; details: 24 h
Procedure: Determination of cell viability was performed in cells (10,000/well) using neutral red method. Absorption of neutral red by lysosomes caused coloring of living cells. Quantitative analysis was performed by colorimetric assay (ELISA reader at 550 nm).

[5] = tested on: rats; experiment: Morris Water Maze, spatial cognition; assay type: in vivo
Procedure: (§1) The Morris Water Maze is a well known test aimed to assess spatial cognitive tasks (Anger, et al., Animal test systems to study behavioral dysfunctions of neurodegenerative disorders, Neurotoxicology, 12, 403-13 (1991)). The maze consists of a circular pool measuring 1.80 m in diameter 60 cm in height. The pool was filled with water (21±1° C.) to a depth of 30 cm. A circular hidden escape platform (10 cm in diameter) was placed just below the water surface. The test room contained several permanent extra maze cues such as the rat housing rack, laboratory table, posters on the walls, etc.
as §1, with “tasks.” for “tasks (Anger, et al., Animal test systems to study behavioral dysfunctions of neurodegenerative disorders, Neurotoxicology, 12, 403-13 (1991)).”
In the experiment rats were given Compound 1 orally on day 1 and the first test begun 90 minute later, six trials per day, for 3 consecutive days, to find the hidden platform (acquisition phase). The escape latency, i.e., the time required by the rat to find and climb onto the platform, was recorded for up to 120 sec. Each rat was allowed to remain on the platform for 30 sec, after which it was removed to its home cage.
A video camera was placed above the center of the pool for tracking the rat, and a video tracking system (Noldus) with online digital output directly fed data into a computer. Data were analyzed using EthoVision automated tracking system software (Noldus).

[6] = ICR male mice, 10 and 20 mg/kg p.o. daily, 7 days

| SMILES | animal general behavior [1, 6] | body weight compared to control animals [1, 6] | food intake compared to control animals [1, 6] | tolerability [1, 6] | water intake compared to control animals [1, 6] | toxic effect ([1]; up to 20 mg/kg given for 7 days) | catalepsy [2] | vertical motility (number of rearings), compound alone ([3]; Balb/c male mice, 50 mg/kg i.p.) | inhibition of rearings presented by MK-801 ([3]; Balb/c male mice, 50 mg/kg i.p. combined with MK-801 0.15 mg/kg i.p.) | basal and MK-801-induced stimulation of horizontal motility (distance moved, velocity, strong mobility) ([3]; Balb/c male mice, 50 mg/kg i.p., MK-801 0.15 mg/kg i.p., open field 60 minutes) | hyperlocomotion effect of MK-801 ([3]; mice, 30 and 50 mg/kg i.p.) | increased frequency to the center of animals treated with MK-801 ([3]; mice, 30 and 50 mg/kg i.p.) | time spent in the center (zone 3), MK-801 treated ([3]; mice, 30 and 50 mg/kg i.p.) | concentration toxic to human glioma cells (not toxic up to) [4] | latency to platform (task execution) ([5]; 20 mg/kg po, second day) | latency to platform (learning of the spatial task) ([5]; rats, 20 mg/kg po on day 1, first day) | latency to platform ([5]; rats, 10 and 20 mg/kg po, third day, between all groups) | motility (distance moved) of MK-801 treated mice ([3]; Balb/c mice, up to 12.5 mg/kg i.p. 1 hr prior to MK-801 (15 mg/kg) i.p.) |
| --- | --- | --- | --- | --- | --- | --- | --- | --- | --- | --- | --- | --- | --- | --- | --- | --- | --- | --- |
| COC(=O)C(N)CN1CCN(C2=Nc3ccccc3Nc3sc(C)cc32)CC1 (stereo not drawn) [Compound 1, 2-amino-3-[4-(2-methyl-10H-thieno[2,3-b][1,5]benzodiazepin-4-yl)-piperazin-1-yl]-propionic acid, methyl ester hydrochloride salt] | no apparent difference | no difference | no difference | well tolerated | no difference | did not cause toxic effect | did not induce catalepsy | markedly suppressed | increased | clear cut decrease | inhibited in a dose related manner | did not modify | increased | > 100 µM | improvement | faster learning | no difference | – |
| CNC(CN1CCN(C2=Nc3ccccc3Nc3sc(C)cc32)CC1)C(=O)OC (stereo not drawn) [Compound 6, 2-N-methylamino-3-[4-(2-methyl-10H-thieno[2,3-b][1.5]benzodiazepin-4-yl)-piperazin-1-yl]propionic acid, methyl ester trihydrochloride salt] | – | – | – | – | – | – | – | – | – | – | – | – | – | – | – | – | – | did not cause a consistent dose dependent effect |
